How the values were obtained:
[1] = Evaluation of caking during preservation; assay type: physicochemical; settings: solid N-acylalanine salt; powder 25 g under 770 g spindle, 50° C., 24 hours, visual
Description: 3. Evaluation of Caking During Preservation […] […] 6. Evaluation of Caking During Preservation: The measurement apparatus and measurement conditions were the same as in the aforementioned 3.

[2] = Evaluation of moisture absorbability during preservation (automatic vapor absorption measurement); assay type: physicochemical; settings: average equilibrated moisture at humidity 70% RH, measurement temperature 25° C.
Protocol: 2. Evaluation of Moisture Absorbability During Preservation: The moisture absorbability was measured under the following measurement conditions and using an automatic vapor absorption measurement apparatus “BELSORP18” manufactured by BELL JAPAN, INC. Measurement conditions: X air thermostatic tank temperature: 50° C.; X measurement temperature: 25° C.; X MAX intake pressure: 0.9×Ps (Ps: saturated vapor pressure at measurement temperature); X MIN exhaust pressure: 0.1×Ps (Ps: saturated vapor pressure at measurement temperature); and X equilibration time: 5 min. Evaluation: Average equilibrated moisture of less than 5% at humidity 70% RH is ⊙, not less than 5% to less than 10% is ◯, not less than 10% to less than 15% is A, not less than 15% is x.

Structure (SMILES): CCCCCCCCCCCC(=O)NC(C)C(=O)[O-].[K+] (racemic) [Example 1, lauroyl-DL-alanine potassium salt]
- caking during preservation [1]: ⊚
- moisture absorbability during preservation [2]: ⊚
